Read-outs that look alike come from different tables or passages of the source.
Assays:
[1] = Dissolution of chlorobutanol in water during preparation of F1(d); format: physicochemical
Procedure: Chlorobutanol dissolves into water very slowly at ambient temperatures. Therefore during the preparation of F1(d), USP-PW was heated. After 18 minutes, the solution was clear and all of the chlorobutanol was completely dissolved.

[2] = system: patients with suspected opioid overdose; conditions: cited from earlier work
opiate addicts = conditions: nasal vs intravenous route; cited from earlier work
[3] = system: suspected opiate overdose; conditions: cited from earlier work
[4] = system: patients with suspected narcotic overdose; conditions: cited from earlier work
[5] = system: suspected opiate overdose; conditions: 2 mg IN, cited from earlier work
overdose events = conditions: 399 overdose events where naloxone was used; cited from earlier work
heroin overdose = conditions: IM naloxone; cited from earlier work
[6] = 2 mg nasal solution dose; predicted by Wermeling; cited from earlier work

Row | Dissolution into water ([1]; ambient temperatures) | Time until solution clear and chlorobutanol completely dissolved ([1]; heated USP-PW, preparation of F1(d)) [min] | SMILES | mean interval from EMS arrival to respiratory rate ≥10 breaths/min ([2]; naloxone 0.4 mg IV) [min] | mean interval from EMS arrival to respiratory rate ≥10 breaths/min ([2]; naloxone 0.8 mg SQ) [min] | effectiveness of nasal administration (opiate addicts) | more than 10 spontaneous respirations per minute within 8 minutes ([3]; 2 mg IM) [%] | more than 10 spontaneous respirations per minute within 8 minutes ([3]; 2 mg IN, mucosal atomizer) [%] | needing rescue naloxone ([3]; IM group) [%] | needing rescue naloxone ([3]; IN group) [%] | clinical response ([4]; IN group) [%] | clinical response ([4]; IV group) [%] | responders responding to IN naloxone alone ([5]; 43 of 52 responders) [%] | median time from administration of IN naloxone to awakening [5] [min] | overdose events reported reversed (overdose events) [%] | patients given supplementary naloxone (heroin overdose) [%] | Cmax [6] [ng/mL] | tmax [6]
1 | very slowly | 18 | CC(C)(O)C(Cl)(Cl)Cl [Chlorobutanol, 1,1,1-trichloro-2-methylpropan-2-ol] |  |  |  |  |  |  |  |  |  |  |  |  |  |  | 
2 |  |  | C=CCN1CC[C@]23c4c5ccc(O)c4O[C@H]2C(=O)CC[C@@]3(O)[C@H]1C5 [naloxone, 17-allyl-4,5a-epoxy-3,14-dihydroxymorphinan-6-one] | 9.3 ± 4.2 | 9.6 ± 4.58 | as effective as the intravenous route | 82 | 63 | 13 | 26 | 66 | 56 | 83 | 3.0 | 89 | 4.5 | 3 to 5 | approximately 20 minutes
